# Data from ChEMBL document CHEMBL3885881, “DrugMatrix”.
# Species on record: Rattus norvegicus
# Assay: DrugMatrix - Regimen: Daily Repeat
# Type: toxicity, organism-based, Sprague-Dawley
# Set-up: regimen Daily Repeat, gender Male, age 6-8 weeks
# Conditions: in vivo, po, route oral GAVAGE, […]; for ABSOLUTE BASOPHIL / ABSOLUTE EOSINOPHIL / ABSOLUTE LYMPHOCYTE / ABSOLUTE MONOCYTE / ABSOLUTE SEGMENTED NEUTROPHIL / BASOPHIL / EOSINOPHIL / ERYTHROCYTE COUNT / HEMATOCRIT / HEMOGLOBIN / LEUKOCYTE COUNT / LYMPHOCYTE / MEAN CORPUSCULAR HEMOGLOBIN / MEAN CORPUSCULAR HEMOGLOBIN CONCENTRATION / MEAN CORPUSCULAR VOLUME / MONOCYTE / NEUTROPHIL / NUCLEATED RED BLOOD CELLS / PLATELET COUNT: tissue Blood; for ALANINE AMINOTRANSFERASE / ALBUMIN / ALKALINE PHOSPHATASE / ASPARTATE AMINOTRANSFERASE / BLOOD UREA NITROGEN / CARBON DIOXIDE / CHLORIDE / CHOLESTEROL / CREATINE PHOSPHOKINASE / CREATININE / GLUCOSE / LACTATE DEHYDROGENASE / LIPASE / PHOSPHORUS / POTASSIUM / SODIUM / TOTAL BILIRUBIN / TOTAL PROTEIN / URIC ACID: tissue Plasma
# [1] = 0 mg/kg, 72 h, dose level Control, time 3 day
# [2] = 0 mg/kg, 120 h, dose level Control, time 5 day
# [3] = 13 mg/kg, 72 h, dose level Low, time 3 day
# [4] = 13 mg/kg, 120 h, dose level Low, time 5 day
structure (smiles),measurement,setting,value
CC1=C(/C=C/C(C)=C/C=C/C(C)=C\C(=O)O)C(C)(C)CCC1 [ISOTRETINOIN],ABSOLUTE BASOPHIL,[1],0 CELLS/uL
same,ABSOLUTE EOSINOPHIL,[1],0 CELLS/uL
same,ABSOLUTE LYMPHOCYTE,[1],8493 CELLS/uL
same,ABSOLUTE MONOCYTE,[1],127 CELLS/uL
same,ABSOLUTE SEGMENTED NEUTROPHIL,[1],896.67 CELLS/uL
same,BASOPHIL,[1],0%
same,EOSINOPHIL,[1],0%
same,ERYTHROCYTE COUNT,[1],5.53 x10E6/uL
same,HEMATOCRIT,[1],34.07%
same,HEMOGLOBIN,[1],13.28 G/DL
same,LEUKOCYTE COUNT,[1],9.52 x10E3/uL
same,LYMPHOCYTE,[1],89.17%
same,MEAN CORPUSCULAR HEMOGLOBIN,[1],24.07 pg
same,MEAN CORPUSCULAR HEMOGLOBIN CONCENTRATION,[1],39.03 G/DL
same,MEAN CORPUSCULAR VOLUME,[1],61.62 fL
same,MONOCYTE,[1],1.33%
same,NEUTROPHIL,[1],9.5%
same,NUCLEATED RED BLOOD CELLS,[1],0.17 /100WBC
same,PLATELET COUNT,[1],1054.17 x10E3/uL
same,ALANINE AMINOTRANSFERASE,[1],77.67 u/L
same,ALBUMIN,[1],4.08 G/DL
same,ALKALINE PHOSPHATASE,[1],404.5 u/L
same,ASPARTATE AMINOTRANSFERASE,[1],83.17 u/L
same,BLOOD UREA NITROGEN,[1],14.33 mg/dL
same,CARBON DIOXIDE,[1],33.17 mmol/L
same,CHLORIDE,[1],101 MEQ/L
same,CHOLESTEROL,[1],76.33 mg/dL
same,CREATINE PHOSPHOKINASE,[1],184.5 u/L
same,CREATININE,[1],0.13 mg/dL
same,GLUCOSE,[1],163.67 mg/dL
same,LACTATE DEHYDROGENASE,[1],130.33 u/L
same,LIPASE,[1],11 u/L
same,PHOSPHORUS,[1],9.27 mg/dL
same,POTASSIUM,[1],6.26 MEQ/L
same,SODIUM,[1],143.57 MEQ/L
same,TOTAL BILIRUBIN,[1],0.18 mg/dL
same,TOTAL PROTEIN,[1],5.82 G/DL
same,URIC ACID,[1],1.38 mg/dL
same,ABSOLUTE BASOPHIL,[2],0 CELLS/uL
same,ABSOLUTE EOSINOPHIL,[2],0 CELLS/uL
same,ABSOLUTE LYMPHOCYTE,[2],8546.17 CELLS/uL
same,ABSOLUTE MONOCYTE,[2],49.5 CELLS/uL
same,ABSOLUTE SEGMENTED NEUTROPHIL,[2],554.33 CELLS/uL
same,BASOPHIL,[2],0%
same,EOSINOPHIL,[2],0%
same,ERYTHROCYTE COUNT,[2],5.36 x10E6/uL
same,HEMATOCRIT,[2],33.38%
same,HEMOGLOBIN,[2],13.2 G/DL
same,LEUKOCYTE COUNT,[2],9.15 x10E3/uL
same,LYMPHOCYTE,[2],93.17%
same,MEAN CORPUSCULAR HEMOGLOBIN,[2],24.68 pg
same,MEAN CORPUSCULAR HEMOGLOBIN CONCENTRATION,[2],39.58 G/DL
same,MEAN CORPUSCULAR VOLUME,[2],62.38 fL
same,MONOCYTE,[2],0.5%
same,NEUTROPHIL,[2],6.33%
same,NUCLEATED RED BLOOD CELLS,[2],0.17 /100WBC
same,PLATELET COUNT,[2],1099.33 x10E3/uL
same,ALANINE AMINOTRANSFERASE,[2],62.33 u/L
same,ALBUMIN,[2],4.1 G/DL
same,ALKALINE PHOSPHATASE,[2],419 u/L
same,ASPARTATE AMINOTRANSFERASE,[2],83.17 u/L
same,BLOOD UREA NITROGEN,[2],15.5 mg/dL
same,CARBON DIOXIDE,[2],33.17 mmol/L
same,CHLORIDE,[2],98 MEQ/L
same,CHOLESTEROL,[2],58.33 mg/dL
same,CREATINE PHOSPHOKINASE,[2],393.17 u/L
same,CREATININE,[2],0.18 mg/dL
same,GLUCOSE,[2],163 mg/dL
same,LACTATE DEHYDROGENASE,[2],111.5 u/L
same,LIPASE,[2],9.5 u/L
same,PHOSPHORUS,[2],10.02 mg/dL
same,POTASSIUM,[2],5.73 MEQ/L
same,SODIUM,[2],143.65 MEQ/L
same,TOTAL BILIRUBIN,[2],0.2 mg/dL
same,TOTAL PROTEIN,[2],5.85 G/DL
same,URIC ACID,[2],0.78 mg/dL
same,ABSOLUTE BASOPHIL,[3],0 CELLS/uL
same,ABSOLUTE EOSINOPHIL,[3],0 CELLS/uL
same,ABSOLUTE LYMPHOCYTE,[3],5796.67 CELLS/uL
same,ABSOLUTE MONOCYTE,[3],69.67 CELLS/uL
same,ABSOLUTE SEGMENTED NEUTROPHIL,[3],533.67 CELLS/uL
same,BASOPHIL,[3],0%
same,EOSINOPHIL,[3],0%
same,ERYTHROCYTE COUNT,[3],5.14 x10E6/uL
same,HEMATOCRIT,[3],32.4%
same,HEMOGLOBIN,[3],12.5 G/DL
same,LEUKOCYTE COUNT,[3],6.4 x10E3/uL
same,LYMPHOCYTE,[3],90.67%
same,MEAN CORPUSCULAR HEMOGLOBIN,[3],24.33 pg
same,MEAN CORPUSCULAR HEMOGLOBIN CONCENTRATION,[3],38.63 G/DL
same,MEAN CORPUSCULAR VOLUME,[3],63.07 fL
same,MONOCYTE,[3],1%
same,NEUTROPHIL,[3],8.33%
same,NUCLEATED RED BLOOD CELLS,[3],0 /100WBC
same,PLATELET COUNT,[3],977.33 x10E3/uL
same,ALANINE AMINOTRANSFERASE,[3],80.33 u/L
same,ALBUMIN,[3],3.7 G/DL
same,ALKALINE PHOSPHATASE,[3],427.67 u/L
same,ASPARTATE AMINOTRANSFERASE,[3],93.33 u/L
same,BLOOD UREA NITROGEN,[3],12 mg/dL
same,CARBON DIOXIDE,[3],35 mmol/L
same,CHLORIDE,[3],101.33 MEQ/L
same,CHOLESTEROL,[3],70.33 mg/dL
same,CREATINE PHOSPHOKINASE,[3],298 u/L
same,CREATININE,[3],0.1 mg/dL
same,GLUCOSE,[3],159.67 mg/dL
same,LACTATE DEHYDROGENASE,[3],103.33 u/L
same,LIPASE,[3],9.33 u/L
same,PHOSPHORUS,[3],9.4 mg/dL
same,POTASSIUM,[3],5.18 MEQ/L
same,SODIUM,[3],146.37 MEQ/L
same,TOTAL BILIRUBIN,[3],0.23 mg/dL
same,TOTAL PROTEIN,[3],5.77 G/DL
same,URIC ACID,[3],0.43 mg/dL
same,ABSOLUTE BASOPHIL,[4],0 CELLS/uL
same,ABSOLUTE EOSINOPHIL,[4],25 CELLS/uL
same,ABSOLUTE LYMPHOCYTE,[4],7680.33 CELLS/uL
same,ABSOLUTE MONOCYTE,[4],0 CELLS/uL
same,ABSOLUTE SEGMENTED NEUTROPHIL,[4],428 CELLS/uL
same,BASOPHIL,[4],0%
same,EOSINOPHIL,[4],0.33%
same,ERYTHROCYTE COUNT,[4],5.2 x10E6/uL
same,HEMATOCRIT,[4],33.33%
same,HEMOGLOBIN,[4],13.23 G/DL
same,LEUKOCYTE COUNT,[4],8.13 x10E3/uL
same,LYMPHOCYTE,[4],94.33%
same,MEAN CORPUSCULAR HEMOGLOBIN,[4],25.47 pg
same,MEAN CORPUSCULAR HEMOGLOBIN CONCENTRATION,[4],39.7 G/DL
same,MEAN CORPUSCULAR VOLUME,[4],64.1 fL
same,MONOCYTE,[4],0%
same,NEUTROPHIL,[4],5.33%
same,NUCLEATED RED BLOOD CELLS,[4],0 /100WBC
same,PLATELET COUNT,[4],1135 x10E3/uL
same,ALANINE AMINOTRANSFERASE,[4],75.67 u/L
same,ALBUMIN,[4],3.67 G/DL
same,ALKALINE PHOSPHATASE,[4],483 u/L
same,ASPARTATE AMINOTRANSFERASE,[4],105.33 u/L
same,BLOOD UREA NITROGEN,[4],12.33 mg/dL
same,CARBON DIOXIDE,[4],32 mmol/L
same,CHLORIDE,[4],98.67 MEQ/L
same,CHOLESTEROL,[4],57 mg/dL
same,CREATINE PHOSPHOKINASE,[4],433.67 u/L
same,CREATININE,[4],0.15 mg/dL
same,GLUCOSE,[4],156.67 mg/dL
same,LACTATE DEHYDROGENASE,[4],119.33 u/L
same,LIPASE,[4],9 u/L
same,PHOSPHORUS,[4],10.47 mg/dL
same,POTASSIUM,[4],5.72 MEQ/L
same,SODIUM,[4],143.43 MEQ/L
same,TOTAL BILIRUBIN,[4],0.3 mg/dL
same,TOTAL PROTEIN,[4],5.7 G/DL
same,URIC ACID,[4],0.67 mg/dL
